# From article PMC6017000, “Distribution Assessments of Coumarins from Angelicae Pubescentis Radix in Rat Cerebrospinal Fluid and Brain by Liquid Chromatography Tandem Mass Spectrometry Analysis” (Molecules : A Journal of Synthetic Chemistry and Natural …, 2018)
# Key:
# [1] = Stability of QC samples in aCSF (freeze-thaw, room temperature); assay type: physicochemical; details: percentage remaining, n = 5; for Stability room temperature: room temperature 24 h; for Stability Freeze-thaw: three freeze-thaw cycles
# [2] = Rat brain distribution after oral administration of APRE (UPLC-MS/MS); details: for AUC0→t / AUC0→∞ / CLz/F / Vz/F: rat brain, oral APRE 4 g/kg, mean ± SD, n = 6; for Tmax / half-life / Kp / log BBexpt.: rat; for Tmax / half-life: brain; for Tmax / half-life / Kp: po, 4 g/kg; for Kp: brain/plasma; for log BBexpt.: log (AUC0→∞/brain/AUC0→∞/plasma), oral APRE
# Method: Each weighed brain sample was homogenized with a 2-fold volume of normal saline solution. IS solution (10 μL, 200 ng/mL) was added to 300 μL of the homogenate. The mixture was then extracted with a 3-fold volume of ethyl acetate. The mixture was vortexed for 1 min and centrifuged at 16,000× g for 10 min. The supernatant was transferred out and dried under a gentle constant flow of nitrogen. The residue was then dissolved with 100 μL of MeOH and ultrasonically (power 250 W, frequency 40 KHz) extracted for 10 min. After centrifugation at 16,000× g for 10 min, the supernatant was drawn out into a clean vial, and 5 μL of each were injected into the UPLC–MS/MS system for analysis.
# The UPLC-MS/MS system consisted of a Shimadzu Nexera UPLC instrument connected to a Shimadzu LCMS-8050 mass spectrometer via the electrospray ionization interface (Shimadzu Corp., Kyoto, Japan). Samples were separated on an ACQUITY UPLC BEH RP18 column (2.1 × 100 mm, 1.7 µm, Waters, Milford, MA, USA) equipped with a BEH RP18 guard column (2.1 × 5 mm, 1.7 µm, Waters, Milford, MA, USA). The column temperature was 30 °C, and the flow rate was 0.4 mL/min. The sample injection volume was 5 µL. The mobile phases consisted of 0.1% (v/v) formic acid in water (A) and ACN (B). The LC gradient elution program and mass working parameters were the same as our previous report [6]. […] The precursor ion, product ion, Q1, Q3, CE and DT were optimized.
# (§1) The time schedule included 9 time-points, and six rats were sampled at each time-point. The rats were fasted overnight with free access to water before the experiment. APRE was suspended with the normal saline and orally administered to the rats at a single dose of 4 g/kg. The animals had free access to water during the experiment.
# Cardiac perfusion was carried out quickly with physiological saline after CSF collection at each time-point. The rat brains were separated, weighed and then stored at −80 °C until treatment.
# (§2) Results were expressed as the mean ± standard deviation (SD). The UPLC-MS/MS data were processed with Labsolutions 5.65 software (Shimadzu Corp., Kyoto, Japan). The pharmacokinetic parameters were calculated with the Drug and Statistics 2.0 software (Mathematical Pharmacology Professional Committee of China, Shanghai, China).
# [3] = Rat CSF distribution after oral administration of APRE (UPLC-MS/MS); details: for total amount percentage of CSF/plasma: (0.48 × AUC0→∞/CSF)/(16 × AUC0→∞/plasma), oral APRE; for total amount percentage of CSF/plasma / AUC(0-inf) / AUC(0-t) / Cmax / Tmax / half-life: rat; for AUC(0-inf) / AUC(0-t) / Cmax / Tmax / half-life: CSF, po, 4 g/kg; for MRM response in CSF: rat CSF after oral APRE
# Method: Aliquots of 50 μL CSF samples with IS (10 μL, 200 ng/mL) were extracted with 600 μL ethyl acetate.
# The UPLC-MS/MS system consisted of a Shimadzu Nexera UPLC instrument connected to a Shimadzu LCMS-8050 mass spectrometer via the electrospray ionization interface (Shimadzu Corp., Kyoto, Japan). Samples were separated on an ACQUITY UPLC BEH RP18 column (2.1 × 100 mm, 1.7 µm, Waters, Milford, MA, USA) equipped with a BEH RP18 guard column (2.1 × 5 mm, 1.7 µm, Waters, Milford, MA, USA). The column temperature was 30 °C, and the flow rate was 0.4 mL/min. The sample injection volume was 5 µL. The mobile phases consisted of 0.1% (v/v) formic acid in water (A) and ACN (B). […] The precursor ion, product ion, Q1, Q3, CE and DT were optimized.
# as §1
# Rats were anesthetized by an intraperitoneal dose of chloral hydrate (350 mg/kg) at 0.25, 0.5, 1, 1.5, 2, 4, 6, 8, 12 h after oral administration of APRE. A dorsal midline cutaneous incision was made, and the muscle at the craniocervical junction was bluntly dissected to expose the atlanto-occipital membrane. The cisterna magna was punctured with a thin syringe needle, and a microinjector connected with the needle was used to collect the interior CSF carefully [27]. Clear CSF was transferred to a clean microtube and frozen at −80 °C until further use. Blood contaminated samples were excluded.
# as §2
# [4] = Stability of QC samples in rat brain homogenate (freeze-thaw, room temperature); assay type: physicochemical; details: percentage remaining, n = 5; for Stability room temperature: room temperature 24 h; for Stability Freeze-thaw: three freeze-thaw cycles
# [5] = set-up: method as in PMID 28654868; details: rat plasma, oral APRE; cited from earlier work
SMILES,AUC0→t [2],AUC0→∞ [2],CLz/F [2] [g/h/kg],Vz/F [2] [g/kg],Tmax [2] [h],half-life [2] [min],Kp [2],AUC(0-inf) [3] [ng·h/mL],AUC(0-t) [3] [ng·h/mL],Cmax [3] [ng/mL],Tmax [3] [h],half-life [3] [min],Stability room temperature ([4]; rat brain QC 80 ng/mL) [%],Stability Freeze-thaw ([4]; rat brain QC 80 ng/mL) [%],Stability room temperature ([4]; rat brain QC 160 ng/mL) [%],Stability Freeze-thaw ([4]; rat brain QC 160 ng/mL) [%],Stability room temperature ([1]; aCSF QC 5 ng/mL) [%],Stability Freeze-thaw ([1]; aCSF QC 5 ng/mL) [%],Stability room temperature ([4]; rat brain QC 5 ng/mL) [%],Stability Freeze-thaw ([4]; rat brain QC 5 ng/mL) [%],other results
"O=c1ccc2cc3ccoc3cc2o1 [Compound 1, psoralen]",351.63 ± 65.06 µg·h/kg,371.95 ± 69.76 µg·h/kg,2.88 ± 0.58,8.86 ± 3.08,0.33 ± 0.13,129 ± 40.2,0.56,51.3 ± 17.5,20.4 ± 6.16,4.49 ± 1.05,4.67 ± 1.63,211 ± 122,99.53±12.87,96.22±7.77,96.99±3.28,96.30±8.22,–,–,–,–,Stability room temperature ([1]; aCSF QC 10 ng/mL): 97.19±5.40%; Stability Freeze-thaw ([1]; aCSF QC 10 ng/mL): 96.14±6.21%; Stability room temperature ([1]; aCSF QC 40 ng/mL): 98.36±3.57%; Stability Freeze-thaw ([1]; aCSF QC 40 ng/mL): 96.98±5.79%; Stability room temperature ([1]; aCSF QC 80 ng/mL): 94.12±6.94%; Stability Freeze-thaw ([1]; aCSF QC 80 ng/mL): 86.27±13.45%; total amount percentage of CSF/plasma [3]: greater than 1%; Stability room temperature ([4]; rat brain QC 10 ng/mL): 101.36±7.46%; Stability Freeze-thaw ([4]; rat brain QC 10 ng/mL): 97.11±8.58%
"COc1c2ccoc2cc2oc(=O)ccc12 [Compound 3, bergapten]",418.20 ± 93.60 µg·h/kg,449.85 ± 97.52 µg·h/kg,3.22 ± 0.85,10.76 ± 4.73,1.21 ± 1.53,140 ± 62.4,0.08,41.3 ± 5.77,27.1 ± 2.26,3.95 ± 0.24,1.46 ± 0.84,403 ± 117,86.01±3.16,85.30±8.42,86.84±6.63,90.70±9.46,106.76±8.57,92.34±7.48,88.02±2.73,89.97±6.29,Stability room temperature ([1]; aCSF QC 40 ng/mL): 94.61±4.23%; Stability Freeze-thaw ([1]; aCSF QC 40 ng/mL): 93.24±6.30%; Stability room temperature ([1]; aCSF QC 80 ng/mL): 99.54±7.55%; Stability Freeze-thaw ([1]; aCSF QC 80 ng/mL): 97.23±5.17%
"CC(C)(O)[C@@H]1Cc2c(ccc3ccc(=O)oc23)O1 [Compound 5, columbianetin]","13,438.17 ± 2016.06 µg/kg·h","16,664.04 ± 3662.67 µg/kg·h",0.11 ± 0.02,0.57 ± 0.39,4 ± 1.79,235 ± 200,0.08,4140 ± 602,3370 ± 604,485 ± 91.4,5 ± 1.1,244 ± 145,–,–,–,–,97.23±8.25,96.35±9.69,97.88±10.06,105.83±7.01,Stability room temperature ([1]; aCSF QC 320 ng/mL): 93.93±2.94%; Stability Freeze-thaw ([1]; aCSF QC 320 ng/mL): 93.46±8.56%; Stability room temperature ([1]; aCSF QC 640 ng/mL): 99.45±9.62%; Stability Freeze-thaw ([1]; aCSF QC 640 ng/mL): 93.87±4.82%; Stability room temperature ([4]; rat brain QC 1200 ng/mL): 89.46±3.10%; Stability Freeze-thaw ([4]; rat brain QC 1200 ng/mL): 91.69±3.42%; Stability room temperature ([4]; rat brain QC 2400 ng/mL): 91.21±6.60%; Stability Freeze-thaw ([4]; rat brain QC 2400 ng/mL): 87.85±9.09%; plasma Cmax [5]: 2240.32 ± 1031.92 µg/L
"C/C=C(/C)C(=O)OC(C)(C)[C@@H]1Cc2c(ccc3ccc(=O)oc23)O1 [Compound 7, columbianadin]",–,–,–,–,–,–,–,–,–,–,–,–,92.73±3.53,94.79±6.28,91.16±4.37,90.93±4.84,–,–,–,–,"time after oral administration within which detected in brain ([2]; rat brain after oral APRE, MRM response under LLOQ at following time points): ≤ 4 h; MRM response in CSF [3]: under LLOQ; Stability room temperature ([4]; rat brain QC 10 ng/mL): 96.82±4.84%; Stability Freeze-thaw ([4]; rat brain QC 10 ng/mL): 101.64±6.63%"
"CC(C)(O)[C@H](O)COc1c2ccoc2cc2oc(=O)ccc12 [Compound 8, oxypeucedanin hydrate]",313.39 ± 59.25 µg·h/kg,397.36 ± 66.83 µg·h/kg,2.04 ± 0.34,14.45 ± 3.95,0.96 ± 0.86,295 ± 54.6,–,73.6 ± 11.8,54 ± 8.2,7.47 ± 1.69,2 ± 1.14,379 ± 117,96.02±6.30,94.94±10.27,97.99±6.44,102.42±7.10,96.96±3.22,97.57±5.59,97.72±9.35,96.57±11.87,Stability room temperature ([1]; aCSF QC 40 ng/mL): 95.09±3.26%; Stability Freeze-thaw ([1]; aCSF QC 40 ng/mL): 94.73±7.34%; Stability room temperature ([1]; aCSF QC 80 ng/mL): 103.37±5.33%; Stability Freeze-thaw ([1]; aCSF QC 80 ng/mL): 95.96±5.37%; log BBexpt. [2]: −0.16
O=c1ccc2c(O)c3ccoc3cc2o1 [bergaptol],–,–,–,–,–,–,–,–,–,–,–,–,–,–,–,–,–,–,–,–,MRM response in brain ([2]; rat brain after oral APRE): under LLOQ; MRM response in CSF [3]: under LLOQ
O=c1ccc2ccc(O)cc2o1 [umbelliferone],–,–,–,–,–,–,–,–,–,–,–,–,–,–,–,–,–,–,–,–,MRM response in brain ([2]; rat brain after oral APRE): under LLOQ; MRM response in CSF [3]: under LLOQ

# The next lines start with results.
AUC0→t [2],AUC0→∞ [2],CLz/F [2] [g/h/kg],Vz/F [2] [g/kg],Tmax [2] [h],half-life [2] [min],Kp [2],AUC(0-inf) [3] [ng·h/mL],AUC(0-t) [3] [ng·h/mL],Cmax [3] [ng/mL],Tmax [3] [h],half-life [3] [min],Stability room temperature ([4]; rat brain QC 80 ng/mL) [%],Stability Freeze-thaw ([4]; rat brain QC 80 ng/mL) [%],Stability room temperature ([4]; rat brain QC 160 ng/mL) [%],Stability Freeze-thaw ([4]; rat brain QC 160 ng/mL) [%],Stability room temperature ([1]; aCSF QC 5 ng/mL) [%],Stability Freeze-thaw ([1]; aCSF QC 5 ng/mL) [%],Stability room temperature ([4]; rat brain QC 5 ng/mL) [%],Stability Freeze-thaw ([4]; rat brain QC 5 ng/mL) [%],SMILES,other results
1327.91 ± 341.99 µg·h/kg,2105.63 ± 1100.15 µg·h/kg,13.96 ± 7.04,60.18 ± 25.11,0.35 ± 0.14,322 ± 129,0.15,30.5 ± 1.53,27.7 ± 2.88,4.31 ± 1.49,2.83 ± 2.84,191 ± 69.6,101.64±8.78,98.42±10.02,96.43±4.95,98.13±6.85,95.92±3.20,94.43±7.49,99.12±3.06,95.53±4.36,"COc1ccc2ccc(=O)oc2c1CC=C(C)C [Compound 10, osthole]",Stability room temperature ([1]; aCSF QC 40 ng/mL): 94.93±5.05%; Stability Freeze-thaw ([1]; aCSF QC 40 ng/mL): 95.90±8.12%; Stability room temperature ([1]; aCSF QC 80 ng/mL): 93.50±6.38%; Stability Freeze-thaw ([1]; aCSF QC 80 ng/mL): 97.71±2.91%
1752.16 ± 249.82 µg·h/kg,1948.10 ± 305.84 µg·h/kg,0.86 ± 0.13,4.46 ± 1.60,1.29 ± 1.5,218 ± 84,–,754 ± 142,676 ± 108,129 ± 20.2,2.17 ± 0.98,202 ± 45,–,–,–,–,92.02±3.40,96.16±10.07,97.21±8.86,94.71±4.63,"COc1ccc2ccc(=O)oc2c1CC(O)C(C)(C)O (centres unmarked) [Compound 11, Meranzin hydrate]",Stability room temperature ([1]; aCSF QC 120 ng/mL): 99.09±5.56%; Stability Freeze-thaw ([1]; aCSF QC 120 ng/mL): 95.58±7.24%; Stability room temperature ([1]; aCSF QC 240 ng/mL): 103.10±9.99%; Stability Freeze-thaw ([1]; aCSF QC 240 ng/mL): 94.40±4.03%; log BBexpt. [2]: −0.10; Stability room temperature ([4]; rat brain QC 200 ng/mL): 96.58±7.80%; Stability Freeze-thaw ([4]; rat brain QC 200 ng/mL): 97.28±10.13%; Stability room temperature ([4]; rat brain QC 400 ng/mL): 95.82±9.16%; Stability Freeze-thaw ([4]; rat brain QC 400 ng/mL): 104.50±7.46%
933.83 ± 66.51 µg·h/kg,1560.07 ± 730.91 µg·h/kg,0.779 ± 0.26,6.30 ± 2.22,5.33 ± 1.03,376 ± 191,0.01,625 ± 249,331 ± 43.2,43.5 ± 5.98,6.33 ± 0.82,401 ± 135,–,–,–,–,102.33±8.37,101.36±5.89,94.83±5.41,98.18±2.46,"CC(C)(O)[C@H]1Cc2cc3ccc(=O)oc3cc2O1 [Compound 12, nodakenetin]",Stability room temperature ([1]; aCSF QC 120 ng/mL): 101.14±5.08%; Stability Freeze-thaw ([1]; aCSF QC 120 ng/mL): 92.78±5.37%; Stability room temperature ([1]; aCSF QC 240 ng/mL): 99.91±7.69%; Stability Freeze-thaw ([1]; aCSF QC 240 ng/mL): 95.63±4.23%; total amount percentage of CSF/plasma [3]: greater than 1%; Stability room temperature ([4]; rat brain QC 200 ng/mL): 97.69±5.38%; Stability Freeze-thaw ([4]; rat brain QC 200 ng/mL): 101.08±9.25%; Stability room temperature ([4]; rat brain QC 400 ng/mL): 95.56±2.64%
